Reference: patent US10752900B2, “Oligonucleotides for modulating gene expression and uses thereof” (BIOGENERA S.P.A., priority 2012, dated 2020)

Tests used:
MYCN gene = test: QT-PCR, MYCN mRNA in Kelly cells; type: cell-based, human; set-up: mRNA Inhibition (%)(Kelly): concentration or dose not given beside the values; settings: for mRNA inhibition (%): Table 1, PNA 1 μM, RNA extracted after 24 hours; for Kelly % mRNA: Table 6
Description: For the purpose of assessing the ability of the oligonucleotides of the present invention to modulate the expression of the target genes, their ability to reduce the quantity of messenger RNA was analyzed using the Real-Time PCR technique.
For this purpose, use was made of 24-well plates, which were seeded with 5.0×10^4 cells with 0.3 ml of OPTI-MEM (GIBCO BRL) medium, 4% FBS and 2 mM L-glutammine (experiments in triplicate) per well.
The cells were incubated for 24 hours at 37° C., in an atmosphere containing 5% CO2 to permit adherence to the base of the wells.
Each oligonucleotide analyzed, except for the PNA oligonucleotides, was incubated beforehand with 2 μl of Lipofectamine 2000 (Invitrogen), with 0.3 mL of serum-free OPTI-MEM (GIBCO BRL) medium.
For each well, the oligonucleotides were analyzed at the following final concentrations: • the antisense oligonucleotides siRNA and siRNA gapmer (i.e. the oligonucleotides containing one or more monomers of chemically modified nucleic acids at the 3′ or 5′ end, while in the central portion they have monomers of nucleic acids that have not been modified or have been modified at the level of the phosphodiester bond as a phosphorothioate bond) were used at 200 nM; • the antisense oligonucleotides containing phosphorothioate DNA monomers, the RNA antigene oligonucleotides (agRNA) and the oligonucleotides containing DNA monomers and LNA monomers were used at 10 μM; • the morpholino oligonucleotides were used at a concentration of 1 μM, and • the PNA oligonucleotides were administered at a concentration of 1 μM.
The cells were treated with the oligonucleotides, adding FBS up to 4% 6 hours after administration of the same. After 24 hours the total RNA was extracted from each well and purified using the RNeasy Mini Kit (QIAGEN).
Assays were performed on 8 cell lines obtained from 5 different human tumours which are correlated with MYCN expression, i.e.: • as a neuroblastoma model use was made of the cell lines Kelly, IMR-32 (where the MYCN gene is amplified and superexpressed) and SKNBE2c and LAN1 (where the MYCN gene is amplified and superexpressed and the p53 gene is mutated); • as a rabdomiosarcoma model use was made of the cell line RH30, where the MYCN gene is amplified and superexpressed; • as a Wilms' tumour model use was made of the cell line WiT49, where the MYCN gene is amplified and superexpressed; • as a retinoblastoma model use was made of the cell line Y79, where the MYCN gene is amplified and superexpressed; and • as a model of small cell lung cancer use was made of the cell line H69 where the MYCN gene is amplified and superexpressed.
As a control, use was made of the same cell lines as listed above treated with sterile water instead of oligonucleotides. Each RNA sample was quantified (in duplicate) using a NanoDrop ND-1000 spectrophotometer (NanoDrop Technologies). The first strand of cDNA was produced using the cDNA Synthesis Kit for RT-PCR (Roche). For the cDNA synthesis reaction a total of 1 μg of RNA was used. For the real-time PCR, 10 ng of cDNA in a final volume of 20 μl was used with SYBR Green Master Mix 2× (Applied Biosystems) (3 identical experiments were conducted in triplicate). Two housekeeping genes were used as positive controls: GAPDH and beta-actin (ACTB).
The conditions of the QT-PCR reaction were: 10 min at 95° C., 20 sec at 95° C., and 30 sec at 60° C., for 50 cycles.
As far as the PNA oligonucleotides are concerned, the results regarding their ability to inhibit the transcription of the MYCN gene and proliferation of Kelly cells are shown in Table 1.
The oligonucleotides were tested in vitro (at a concentration of 2.5 μM) to determine their ability to inhibit the transcription of the gene they are directed against by measuring the levels of the gene messenger in cellular models in which the gene of interest is overexpressed. The methods used are the ones described in example 1. […]

[1] = test system: human and mouse neuroblastoma tumour cell lines (SMS-KAN, LAN 1, IMR-32, SMS-KCN, Kelly, NHO2A, SKNBE2c); type: cell-based

Substance | mRNA inhibition (%) (MYCN gene) | Kelly % mRNA (MYCN gene) [%] | effect in terms of inhibiting cell proliferation in combination with chemotherapeutic agents [1] | mRNA Inhibition (%)(Kelly) (MYCN gene; Table 7, SEQ ID NO: 5 and guanine-group mutants) [%]
SEQ ID NO: 2: PNA antigene oligonucleotide GGGTGGATGCGGGGGG directed against MYCN (PNA backbone, chemistry not fully specified) | 75 | 75 |  | 
SEQ ID NO: 9: PNA antigene oligonucleotide CCCTGCAGTCGGCGGG directed against MYCN (all peptide nucleic acid (PNA)) | 51 | 51 |  | 
SEQ ID NO: 7: PNA antigene oligonucleotide CGCGCTGGGTGGATGC directed against MYCN (all peptide nucleic acid (PNA)) | 58 | 58 |  | 
SEQ ID NO: 10: PNA antigene oligonucleotide CGGCCGCGGGCCGCCA directed against MYCN (PNA backbone, chemistry not fully specified) | 51 | 51 |  | 
SEQ ID NO: 1: PNA ATGCCGGGCATGATCT against MYCN; subject of patent EP 1618195, control sequence used for comparison (all peptide nucleic acid (PNA)) [reference compound] | 42 | 48 | synergic effect | 
SEQ ID NO: 8: PNA antigene oligonucleotide GTCTGGACGCGCTGGG directed against MYCN (all peptide nucleic acid (PNA)) | 54 | 54 |  | 
SEQ ID NO: 5: PNA antigene oligonucleotide GCTGGGTGGATGCGGG directed against MYCN (PNA backbone, chemistry not fully specified) | 62 | 62 |  | 62
SEQ ID NO: 11: PNA antigene oligonucleotide GGGAACTGTGTTGGAG directed against MYCN (PNA backbone, chemistry not fully specified) | 48 | 50 |  | 
SEQ ID NO: 6: PNA antigene oligonucleotide TGGACGCGCTGGGTGG directed against MYCN (PNA backbone, chemistry not fully specified) | 60 | 60 |  | 
SEQ ID NO: 12: PNA antigene oligonucleotide TGTCTGGACGCGCTGG directed against MYCN (all peptide nucleic acid (PNA)) | 47 | 50 |  | 
SEQ ID NO: 3: PNA antigene oligonucleotide GATGCGGGGGGCTCCT directed against MYCN (PNA backbone, chemistry not fully specified) | 68 | 68 |  | 
SEQ ID NO: 4: PNA antigene oligonucleotide GTCGGCGGGAGGTAAG directed against MYCN (PNA backbone, chemistry not fully specified) | 65 | 65 |  | 
